In the supplement of paper PMC10627819:

Experiments:
B. subtilis 168 [1] = assay: Bliss interaction score (quartile over a dose matrix) (fitness difference); higher = more antagonism (negative = synergy)
Method in brief: (§1)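 Growth was read as OD595 when cultures entered stationary phase, and each value was divided by the plate's robust no-drug mean and capped at 1. This normalised ratio is the fitness value, and fitness for each single drug came from the combination data. The Bliss score subtracts the expected fitness, taken as the product, from the observed fitness and is given as quartiles across technical, biological and donor/recipient replicates.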

S. aureus Newman [2] = assay: as above
Method in brief: as §1

S. aureus DSM 20231 = assay: as above
Method in brief: as §1

S. pneumoniae D39V [3] = assay: as above
Method in brief: as §1

B. subtilis 168 [4] = assay: fitness (endpoint OD595 vs no drug) (fraction); higher = more growth
Method in brief: (§2)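 Bacterial growth was followed in 384-well plates seeded at OD595 0.01, with 30 µl per well, or 55 µl for S. pneumoniae, in TSB, LB Lennox or CY at 37 °C. OD595 was read every 30 min for 14 h, and each reading had the first reading subtracted as background. Fitness is the background-corrected optical density at entry into stationary phase divided by the robust mean of the no-drug control wells. This ratio is capped at 1.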

S. pneumoniae D39V [5] = assay: as above
Method in brief: as §2

S. aureus Newman [6] = assay: as above; settings: one replicate, main component drawn
Method in brief: as §2
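For Bliss interaction score (quartile over a dose matrix) in this document: first quartile when negative (synergy) and third quartile when positive (antagonism).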

CCC[C@@H]1C[C@@H](C(=O)N[C@@H]([C@H]2O[C@H](SC)[C@H](O)[C@@H](O)[C@H]2O)[C@@H](C)O)N(C)C1 [Lincomycin] + CN[C@@H]1[C@H](O[C@H]2[C@H](O[C@H]3[C@H](O)[C@@H](O)[C@H](N=C(N)N)[C@@H](O)[C@@H]3N=C(N)N)O[C@@H](C)[C@]2(O)C=O)O[C@@H](CO)[C@H](O)[C@H]1O [Streptomycin]
Settings | Bliss interaction score
B. subtilis 168 [1] | 0.105
S. aureus DSM 20231 | -0.107
S. aureus Newman [2] | 0.0761
S. pneumoniae D39V [3] | -0.129

fitness
Settings | first compound 0.1 µg/mL | first compound 0.2 µg/mL | first compound 0.215 µg/mL | first compound 0.4 µg/mL | first compound 0.43 µg/mL | first compound 0.8 µg/mL | first compound 0.86 µg/mL
B. subtilis 168 [4], partner 2 µg/mL | 0.935 | 0.913 | – | 0.9 | – | – | –
B. subtilis 168 [4], partner 8 µg/mL | – | – | – | 0.0442 | – | – | –
S. pneumoniae D39V [5], partner 2 µg/mL | – | – | 0.768 | – | 0.681 | – | 0.231
S. pneumoniae D39V [5], partner 4 µg/mL | – | 0.699 | 0.784 | 0.627 | 0.686 | 0.305 | 0.284
S. pneumoniae D39V [5], partner 8 µg/mL | – | 0.588 | 0.796 | 0.539 | 0.667 | 0.203 | 0.195

fitness, S. pneumoniae D39V [5], one replicate
Settings | first compound 0.2 µg/mL | first compound 0.4 µg/mL | first compound 0.8 µg/mL
partner 2 µg/mL | 0.759 | 0.7 | 0.421
partner 16 µg/mL | 0.509 | 0.369 | 0.0724

COc1c(N2C[C@@H]3CCCN[C@@H]3C2)c(F)cc2c(=O)c(C(=O)O)cn(C3CC3)c12 [Moxifloxacin] + CCC(C)C1C(=O)NC(=C)C(=O)NC(C(=O)NC(CSCC(C(=O)N1)NC(=O)/C(=C/C)/NC(=O)C(C(C)CC)N)C(=O)NC2C(SCC(NC(=O)CNC(=O)C3CCCN3C2=O)C(=O)NC(CCCCN)C(=O)NC4C(SCC(NC(=O)CNC(=O)C(NC(=O)C(NC(=O)C(NC(=O)CNC4=O)C)CC(C)C)CCSC)C(=O)NC(CC(=O)N)C(=O)NC(CCSC)C(=O)NC(CCCCN)C(=O)NC5C(SCC6C(=O)NC(C(=O)NC(CSC(C(C(=O)N6)NC(=O)C(NC5=O)C)C)C(=O)NC(CO)C(=O)NC(C(C)CC)C(=O)NC(CC7=CN=CN7)C(=O)NC(C(C)C)C(=O)NC(=C)C(=O)NC(CCCCN)C(=O)O)CC8=CN=CN8)C)C)C)CC(C)C [Nisin]
main component drawn
Settings | Bliss interaction score
B. subtilis 168 [1] | 0.0196
S. aureus DSM 20231 | 0.0667
S. aureus Newman [2] | -0.0568
S. pneumoniae D39V [3] | 0.116

main component drawn
Settings | fitness
B. subtilis 168 [4], first compound 0.0312 µg/mL, partner 0.5 µg/mL | 0.0551
B. subtilis 168 [4], first compound 0.0312 µg/mL, partner 1 µg/mL | 0.0324
B. subtilis 168 [4], first compound 0.0312 µg/mL, partner 2 µg/mL | 0.0208
B. subtilis 168 [4], first compound 0.0625 µg/mL, partner 0.5 µg/mL | 0.0449
B. subtilis 168 [4], first compound 0.0625 µg/mL, partner 1 µg/mL | 0.0306
B. subtilis 168 [4], first compound 0.0625 µg/mL, partner 2 µg/mL | 0.022
B. subtilis 168 [4], first compound 0.125 µg/mL, partner 0.5 µg/mL | 0.0446
B. subtilis 168 [4], first compound 0.125 µg/mL, partner 1 µg/mL | 0.0343
B. subtilis 168 [4], first compound 0.125 µg/mL, partner 2 µg/mL | 0.0231
S. pneumoniae D39V [5], first compound 0.0037 µg/mL, partner 0.4275 µg/mL | 0.993
S. pneumoniae D39V [5], first compound 0.0037 µg/mL, partner 0.855 µg/mL | 0.986
S. pneumoniae D39V [5], first compound 0.0037 µg/mL, partner 1.71 µg/mL | 0.0722
S. pneumoniae D39V [5], first compound 0.005 µg/mL, partner 6.4 µg/mL | 0.0381
S. pneumoniae D39V [5], first compound 0.0075 µg/mL, partner 0.4275 µg/mL | 0.971
S. pneumoniae D39V [5], first compound 0.0075 µg/mL, partner 0.855 µg/mL | 0.974
S. pneumoniae D39V [5], first compound 0.0075 µg/mL, partner 1.71 µg/mL | 0.0723
S. pneumoniae D39V [5], first compound 0.01 µg/mL, partner 6.4 µg/mL | 0.0415
S. pneumoniae D39V [5], first compound 0.015 µg/mL, partner 0.4275 µg/mL | 0.898
S. pneumoniae D39V [5], first compound 0.015 µg/mL, partner 0.855 µg/mL | 0.922
S. pneumoniae D39V [5], first compound 0.015 µg/mL, partner 1.71 µg/mL | 0.089
S. pneumoniae D39V [5], first compound 0.02 µg/mL, partner 6.4 µg/mL | 0.0317

fitness, B. subtilis 168 [4], one replicate, main component drawn
Settings | first compound 0.0312 µg/mL | first compound 0.0625 µg/mL | first compound 0.125 µg/mL | first compound 2 µg/mL | first compound 4 µg/mL | first compound 8 µg/mL
partner 0.5 µg/mL | – | – | – | 0.0297 | 0.0204 | 0.0134
partner 1 µg/mL | – | – | – | 0.0435 | 0.031 | 0.0236
partner 1.25 µg/mL | 0.0287 | 0.0387 | 0.0145 | – | – | –
partner 1.6 µg/mL | 0.0362 | 0.0251 | 0.0203 | – | – | –
partner 2 µg/mL | – | – | – | 0.0532 | 0.0341 | 0.0259
partner 2.5 µg/mL | 0.037 | 0.0186 | 0.0151 | – | – | –
partner 3.2 µg/mL | 0.0222 | 0.0273 | 0.0354 | – | – | –
partner 4 µg/mL | – | – | – | 0.0258 | 0.0254 | 0.0138
partner 5 µg/mL | 0.0373 | 0.0148 | 0.0138 | – | – | –
partner 6.4 µg/mL | 0.0438 | 0.0244 | 0.0155 | – | – | –
partner 8 µg/mL | – | – | – | 0.0213 | 0.0075 | 0.0166
partner 16 µg/mL | – | – | – | 0.008 | 0.0061 | 0.0096

C/C(=C\C(=O)OCCCCCCCCC(=O)O)C[C@@H]1OC[C@H](C[C@@H]2O[C@H]2[C@@H](C)[C@H](C)O)[C@@H](O)[C@H]1O [Pseudomonic acid] + CCCCCCCCCC(=O)N[C@@H]1[C@H]([C@@H]([C@H](O[C@H]1OC2=C3C=C4C=C2OC5=C(C=C(C=C5)[C@H]([C@H]6C(=O)N[C@@H](C7=C(C(=CC(=C7)O)OC8[C@H]([C@H]([C@@H]([C@H](O8)CO)O)O)O)C9=C(C=CC(=C9)[C@H](C(=O)N6)NC(=O)[C@@H]4NC(=O)[C@@H]1C2=CC(=CC(=C2)OC2=C(C=CC(=C2)[C@H](C(=O)N[C@H](CC2=CC(=C(O3)C=C2)Cl)C(=O)N1)N)O)O)O)C(=O)O)O[C@H]1[C@@H]([C@H]([C@@H]([C@H](O1)CO)O)O)NC(=O)C)Cl)CO)O)O [Teicoplanin]
main component drawn
Settings | Bliss interaction score
B. subtilis 168 [1] | 0.116
S. aureus DSM 20231 | -0.0304
S. aureus Newman [2] | -0.0375
S. pneumoniae D39V [3] | 0.0843

fitness, S. aureus Newman [6]
Settings | first compound 0.0313 µg/mL | first compound 0.0625 µg/mL | first compound 0.125 µg/mL
partner 0.1562 µg/mL | 0.0547 | 0.0391 | 0.0327
partner 0.3125 µg/mL | 0.0341 | 0.0111 | 0.005
partner 0.625 µg/mL | 0.0079 | 0.0049 | 0.0139
